Tests used:
[1] = test system: Hemoglobin; experiment: Hemoglobin content; type: in vivo, rat; conditions: for decrease in hemoglobin content: 3 days
Method: Group 1 received an equivalent amount of saline and served as control. Animals from group 2, 3, and 4 were given methomyl 1, 2, and 4 mg/kg body weight i.p. respectively, between 8: 00 a.m. and 9:00 a.m., for three consecutive days. […] Animals from group 2, 3, and 4 were injected with 4 mg/kg body weight methomyl for one, three, and five successive days. The volume injected into the rats of body weight 200 g was 1 ml. […]
Hemoglobin was measured using HLS-hemosafe reagent. The color obtained was measured colorimetrically at 530 nm.

[2] = test system: cytochrome b5; experiment: Hepatic microsomal cytochrome b5 level; type: in vivo, rat
Method: (§1) Adult male rats (weighing 200-230 g) were divided into four groups of six animals each. Group 1 received an equivalent amount of saline and served as control. Animals from group 2, 3, and 4 were given methomyl 1, 2, and 4 mg/kg body weight i.p. respectively, between 8: 00 a.m. and 9:00 a.m., for three consecutive days. In the second set of experiments, adult male rats were divided into four groups. Animals from group 2, 3, and 4 were injected with 4 mg/kg body weight methomyl for one, three, and five successive days. The volume injected into the rats of body weight 200 g was 1 ml. In another experiment, adult female rats and old male rats (weighing 350-450 g, 8 months old) were divided into two groups of six animals each. Group 2 of each category received methomyl (4 mg/kg body weight, i.p., for three successive days), and group 1 of each category received an equivalent amount of saline and served as the control group.
(§2) The rats were sacrificed by cervical dislocation, 24 hours after the last dose. Their livers were perfused in situ with ice cold 1.15% KCl containing 0.05 mM EDTA, rapidly excised, blotted dry, weighed, minced and homogenized with two volumes of ice cold 0.25 M sucrose solution, in a Potter-Elvehjem type homogenizer. The homogenate was centrifuged at 10,000 × g for 10 min, in a refrigerated centrifuge (REMI C-24). The microsomes were isolated by the procedure described by of Cinti et al.[4] The microsomal pellet was suspended in phosphate buffer (0.1 M, pH 7.4) and the suspension was used for the microsomal enzyme assays. Microsomal protein content was measured by the Biuret method, using bovine serum albumin as the standard.[5]
(§3) The microsomal electron transport components (cytochrome P450 and cytochrome b5) were determined using Hitachi UV-Visible double beam recording spectrophotometer, by the procedure of Omura and Sato.[67] Cytochrome c reductase activity was determined using the method recommended by Masters et al.[8] Aminopyrine N-demethylase activity was assayed according to the procedure described by Schenkman et al.[9] Formaldehyde liberated during N-demethylation was estimated by the procedure described by Nash.[10] Aniline hydroxylase assay was performed using the procedure reported by Govindwar and Dalvi.[11]

[3] = test system: alanine aminotransferase (SGPT); experiment: Serum alanine aminotransferase (SGPT) activity; type: in vivo, rat; conditions: female rats; for SGPT: for 3 days
[4] = test system: Aminopyrine N-demethylase; experiment: Hepatic microsomal aminopyrine N-demethylase activity; type: in vivo, rat
Method: as §1, §2, §3

[5] = test system: alanine aminotransferase (SGPT); experiment: Serum alanine aminotransferase (SGPT) activity; type: in vivo, rat; conditions: for Increased activity of alanine aminotransferase: 3 days
Method: Adult male rats (weighing 200-230 g) were divided into four groups of six animals each. Group 1 received an equivalent amount of saline and served as control. Animals from group 2, 3, and 4 were given methomyl 1, 2, and 4 mg/kg body weight i.p. respectively, between 8: 00 a.m. and 9:00 a.m., for three consecutive days. In the second set of experiments, adult male rats were divided into four groups. Animals from group 2, 3, and 4 were injected with 4 mg/kg body weight methomyl for one, three, and five successive days. The volume injected into the rats of body weight 200 g was 1 ml. […]
Alanine aminotransferase and aspartate aminotransferase activity was measured using the Reitman and Frankel[12] method. Alkaline phosphatase activity was measured using Span diagnostic kits.[13] Cholinesterase activity was measured using the kinetic test method of Knedel et al.[14]

[6] = test system: old male rats; conditions: cited from earlier work
[7] = test system: aspartate aminotransferase (SGOT); experiment: Serum aspartate aminotransferase (SGOT) activity; type: in vivo, rat; conditions: female rats; for SGOT: for 3 days
[8] = classification; cited from earlier work
[9] = Serum total protein; type: in vivo, rat; conditions: female rats; for Serum total protein: for 3 days; for decrease in total protein content: 3 days
[10] = test system: plasma ChE; conditions: methomyl aerosol, male rats, repeated inhalation; cited from earlier work
[11] = test system: Male Wistar rats; conditions: 4 mg/kg; cited from earlier work
[12] = female rats, 4 mg/kg body weight i.p., for 3 days
[13] = male rats, 1 mg/kg body weight i.p., for three days
[14] = male rats, 2 mg/kg body weight i.p., for three days
[15] = male rats, 4 mg/kg body weight i.p., for three days
[16] = adult female rat, 4 mg/kg i.p., three days, vs control
[17] = adult female rats, 4 mg/kg body weight, i.p., three days
[18] = adult male rats, 1 mg/kg i.p., for 3 days
[19] = adult male rats, 2 mg/kg i.p., for 3 days
[20] = adult male rats, 4 mg/kg i.p., for 3 days
[21] = adult rats, 4 mg/kg i.p., 1 day of treatment
[22] = adult rats, 4 mg/kg i.p., 3 days of treatment
[23] = adult rats, 4 mg/kg i.p., 5 days of treatment
[24] = old male rat, 4 mg/kg i.p., three days, vs control
[25] = old male rats, 4 mg/kg body weight, i.p., three days

## CNC(=O)ON=C(C)SC [methomyl, S-methyl-N-(methyl carbomyl)-thioacetimidate]
[1]; female rat, 1 mg/kg i.p.
  decrease in hemoglobin content: 21%
[1]; female rat, 2 mg/kg i.p.
  decrease in hemoglobin content: 21%
[1]; female rat, 4 mg/kg i.p.
  decrease in hemoglobin content: 29%
[1]; female rats, 1 mg/kg body weight i.p., for 3 days
  Hemoglobin: 10.06 g/dL
[1]; female rats, 2 mg/kg body weight i.p., for 3 days
  Hemoglobin: 10.00 g/dL
[1]; [12]
  Hemoglobin: 9.06 g/dL
[1]; male rat, 1 mg/kg i.p.
  decrease in hemoglobin content: 16%
[1]; male rat, 2 mg/kg i.p.
  decrease in hemoglobin content: 25%
[1]; male rat, 4 mg/kg i.p.
  decrease in hemoglobin content: 29%
[1]; [13]
  Hemoglobin: 9.60 g/dL
[1]; [14]
  Hemoglobin: 8.60 g/dL
[1]; [15]
  Hemoglobin: 8.10 g/dL
[2]; [16]
  decrease in the level of cytochrome b5: 21%
[2]; [17]
  Cytochrome b5: 0.15 nmole/mg protein
[2]; [18]
  Cytochrome b5: 0.16 nmole/mg protein
[2]; [19]
  Cytochrome b5: 0.20 nmole/mg protein
[2]; [20]
  Cytochrome b5: 0.19 nmole/mg protein
[2]; adult male rats, 4 mg/kg i.p., one, three and five days
  change in cytochrome b5: No significant change
[2]; adult male rats, all the three doses (1, 2 and 4 mg/kg i.p., 3 days)
  change in cytochrome b5: No significant change
[2]; [21]
  Cytochrome b5: 0.25 nmole/mg protein
[2]; [22]
  Cytochrome b5: 0.29 nmole/mg protein
[2]; [23]
  Cytochrome b5: 0.28 nmole/mg protein
[2]; [24]
  decrease in cytochrome b5: 51%
[2]; [25]
  Cytochrome b5: 0.20 nmole/mg protein
[3]; 1 mg/kg body weight i.p.
  SGPT: 43.0 u/l
[3]; 2 mg/kg body weight i.p.
  SGPT: 46.0 u/l
[3]; 2 mg/kg i.p., 3 days
  Increased activity of alanine aminotransferase: 14%
[4]; [16]
  decrease in the activity of aminopyrine N-demethylase: 26%
[4]; [17]
  Aminopyrine N-demethylase: 3.30 nmole of formaldehyde liberated/min/mg microsomal protein
[4]; [18]
  Aminopyrine N-demethylase: 3.2 nmole of formaldehyde liberated/min/mg microsomal protein
[4]; adult male rats, 2 mg/kg i.p., 3 days, vs control
  decrease in the activity of aminopyrine N-demethylase: 50%
[4]; [19]
  Aminopyrine N-demethylase: 1.9 nmole of formaldehyde liberated/min/mg microsomal protein
[4]; adult male rats, 4 mg/kg i.p., 3 days, vs control
  decrease in the activity of aminopyrine N-demethylase: 40%
[4]; adult male rats, 4 mg/kg i.p., five days, vs control
  decrease in activity of aminopyrine N-demethylase: 31%
[4]; [20]
  Aminopyrine N-demethylase: 2.3 nmole of formaldehyde liberated/min/mg microsomal protein
[4]; adult male rats, 4 mg/kg i.p., one day, vs control
  decrease in activity of aminopyrine N-demethylase: 31%
[4]; adult male rats, 4 mg/kg i.p., three days, vs control
  decrease in activity of aminopyrine N-demethylase: 51%
[4]; [21]
  Aminopyrine N-demethylase: 3.11 nmole of formaldehyde liberated/min/mg microsomal protein
[4]; [22]
  Aminopyrine N-demethylase: 2.20 nmole of formaldehyde liberated/min/mg microsomal protein
[4]; [23]
  Aminopyrine N-demethylase: 3.09 nmole of formaldehyde liberated/min/mg microsomal protein
[4]; [24]
  decrease in aminopyrine N-demethylase: 50%
[4]; [25]
  Aminopyrine N-demethylase: 2.26 nmole of formaldehyde liberated/min/mg microsomal protein
[5]; [12]
  SGPT: 50.0 u/l
[5]; female rats, 4 mg/kg i.p.
  Increased activity of alanine aminotransferase: 24%
[5]; [13]
  SGPT: 47.3 u/l
[5]; [14]
  SGPT: 50.0 u/l
[5]; male rats, 2 mg/kg i.p.
  Increased activity of alanine aminotransferase: 12%
[5]; [15]
  SGPT: 53.6 u/l
[5]; male rats, 4 mg/kg i.p.
  Increased activity of alanine aminotransferase: 20%
[6]
  hemoglobin content, hematocrit value, erythrocyte, and leucocyte count: Decreased
[7]; 1 mg/kg body weight i.p.
  SGOT: 43.5 u/l
[7]; 2 mg/kg body weight i.p.
  SGOT: 46.6 u/l
[7]; 2 mg/kg i.p., 3 days
  Increased activity of aspartate aminotransferase: 26%
[8]
  pesticide toxicity category: category-1
[9]; 1 mg/kg body weight i.p.
  Serum total protein: 1.90 g/dL
[9]; 1 mg/kg i.p.
  decrease in total protein content: 14%
[9]; 2 mg/kg body weight i.p.
  Serum total protein: 1.96 g/dL
[9]; 2 mg/kg i.p.
  decrease in total protein content: 11%
[10]
  effect on plasma ChE: marked suppression
[11]
  duration of maximum severity: about 30 min
  time to development of signs of toxicity: ≤ 2 min
  time to maximum severity (muscle fasciculation and convulsions): 5 to 10 min
  time until free from obvious toxicity: ≤ 90 min

Source: article PMC2792609, “Effect of methomyl on hepatic mixed function oxidases in rats” (Indian Journal of Pharmacology, 2008)
